{"source": "paper PMC10006239", "about": "“C–N bond formation by a polyketide synthase” (Nature Communications, 2023)", "key": {"CalA3 [1]": {"molecular_target": "T1, CalA3 (Streptomyces chartreusis, UniProt A0A2N9BJK0)", "T1 construct": "gene SCNRRL3882_6975; full length, gene 5178 bp, C-terminal 6xHis tag (pET28a), E. coli BAP1; about 180 kDa per chain, homodimer about 360 kDa; domains DD-KS-LD-AT-DH-psiKR/KR, no ACP", "T1 sequence (A0A2N9BJK0 1-1727)": "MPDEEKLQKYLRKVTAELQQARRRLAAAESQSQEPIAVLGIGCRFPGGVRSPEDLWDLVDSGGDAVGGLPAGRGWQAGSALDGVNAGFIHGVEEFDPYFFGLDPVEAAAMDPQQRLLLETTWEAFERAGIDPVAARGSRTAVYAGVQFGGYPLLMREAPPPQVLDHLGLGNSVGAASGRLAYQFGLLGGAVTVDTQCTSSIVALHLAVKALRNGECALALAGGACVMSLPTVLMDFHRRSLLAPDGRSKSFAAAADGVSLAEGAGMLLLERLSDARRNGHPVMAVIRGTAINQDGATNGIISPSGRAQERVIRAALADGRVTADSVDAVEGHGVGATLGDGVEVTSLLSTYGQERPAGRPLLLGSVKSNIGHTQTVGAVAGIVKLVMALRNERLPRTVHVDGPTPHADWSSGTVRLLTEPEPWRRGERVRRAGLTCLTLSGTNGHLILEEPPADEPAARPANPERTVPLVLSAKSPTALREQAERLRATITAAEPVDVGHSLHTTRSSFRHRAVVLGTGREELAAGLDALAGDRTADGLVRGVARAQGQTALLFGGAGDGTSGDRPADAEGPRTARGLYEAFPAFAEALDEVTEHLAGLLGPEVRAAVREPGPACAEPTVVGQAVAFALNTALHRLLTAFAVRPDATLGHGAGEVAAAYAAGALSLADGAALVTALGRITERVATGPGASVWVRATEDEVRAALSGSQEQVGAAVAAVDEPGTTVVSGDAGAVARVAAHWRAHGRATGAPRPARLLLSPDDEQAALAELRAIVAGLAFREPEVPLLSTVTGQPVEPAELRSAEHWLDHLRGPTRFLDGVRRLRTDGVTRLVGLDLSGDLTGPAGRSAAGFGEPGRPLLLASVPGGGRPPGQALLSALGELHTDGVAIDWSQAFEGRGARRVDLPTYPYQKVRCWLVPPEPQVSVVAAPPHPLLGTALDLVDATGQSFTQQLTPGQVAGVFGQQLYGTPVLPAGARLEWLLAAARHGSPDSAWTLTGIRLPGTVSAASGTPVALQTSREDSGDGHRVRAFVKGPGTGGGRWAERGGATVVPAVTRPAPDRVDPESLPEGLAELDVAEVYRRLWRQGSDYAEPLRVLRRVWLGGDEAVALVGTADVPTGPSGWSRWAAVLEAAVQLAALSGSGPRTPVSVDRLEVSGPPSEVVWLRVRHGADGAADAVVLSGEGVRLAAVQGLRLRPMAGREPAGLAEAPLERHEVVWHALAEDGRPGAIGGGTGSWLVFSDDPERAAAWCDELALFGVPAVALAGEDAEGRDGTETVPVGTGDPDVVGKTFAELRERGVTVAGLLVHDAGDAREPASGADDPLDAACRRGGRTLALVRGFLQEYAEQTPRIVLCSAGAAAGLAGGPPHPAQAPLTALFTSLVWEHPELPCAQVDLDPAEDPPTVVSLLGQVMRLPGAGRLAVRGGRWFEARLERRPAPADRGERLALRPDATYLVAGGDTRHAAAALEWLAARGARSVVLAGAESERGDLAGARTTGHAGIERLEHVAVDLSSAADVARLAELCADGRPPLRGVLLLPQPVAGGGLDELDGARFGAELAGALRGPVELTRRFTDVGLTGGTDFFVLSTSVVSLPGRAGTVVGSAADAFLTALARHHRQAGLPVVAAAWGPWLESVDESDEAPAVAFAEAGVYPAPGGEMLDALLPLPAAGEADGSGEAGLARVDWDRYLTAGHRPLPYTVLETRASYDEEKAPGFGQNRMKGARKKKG", "assay": "HPLC turnover assay at […] nm, products confirmed by LC-HRMS and NMR", "format": "biochemical", "details": "5 µM CalA3, 0.15 mM SNAC-N1, 0.5 mM 3-HAA, 25 mM Tricine pH 7.5, 30 °C, 13 h; amidation and hydrolysis"}, "CalA3 [2]": {"molecular_target": "T1, CalA3", "assay": "cryo-EM structure, […] Å", "format": "binding", "details": "KS substrate tunnel, chain A only; specimen also contained 3-HAA; PDB id assigned by order of listing"}, "CalA3 [3]": {"molecular_target": "T1, CalA3", "assay": "cryo-EM structure, […] Å", "format": "binding", "details": "KS substrate tunnel, chains A and B; specimen also contained 3-HAA; PDB id assigned by order of listing"}, "[4]": {"molecular_target": "CalA3 (Streptomyces chartreusis NRRL 3882)", "assay": "cryo-EM structure; purified CalA3 at ~4 mg/mL in 50 mM Tricine pH 8.0 with 1 mM 3-HAA and SNAC-N1 (further samples at ~4.5 mg/mL with amidation or hydrolysis product and 3-HAA); Titan Krios 300 kV, K3 detector; homodimer"}}, "data": [{"molecule": "CC(=O)NCCSC(=O)CCCCCCCCCC(=O)c1ccc[nH]1", "note": "[compound 1, SNAC-N1]", "values": [{"measurement": "HPLC turnover assay at 290 nm, products confirmed by LC-HRMS and NMR", "setting": "CalA3 [1]", "value": "SNAC-N1 and 3-HAA were incubated with CalA3, and a total of three peaks were detected"}]}, {"molecule": "O=C(O)CCCCCCCCCC(=O)c1ccc[nH]1", "note": "[compound 2, 11-oxo-11-(pyrrol-2-yl) undecanoic acid]", "values": [{"measurement": "cryo-EM structure, 3.97 Å", "setting": "CalA3 [2]", "value": "the hydrolysis product was captured only in the KS domain of chain A"}]}, {"molecule": "O=C(CCCCCCCCCC(=O)c1ccc[nH]1)Nc1c(O)cccc1C(=O)O", "note": "[compound 3, amidation product]", "values": [{"measurement": "cryo-EM structure, 3.84 Å", "setting": "CalA3 [3]", "value": "the amidation products were captured in the KS domains of both chain A and B"}]}, {"molecule": "CalA3 (enzyme)", "values": [{"measurement": "stoichiometry N", "setting": "[4]", "value": 2}]}]}
